This note sets out measurements from ChEMBL document CHEMBL1201862, “PubChem BioAssay data set” (2004).

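All cell lines were grown in 96-well plates and treated with compound for 48 hours. Here, GI50 denotes the concentration required for 50% inhibition of growth.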 The source made the active and inactive calls. Cut-off read from the data, not from the text of the source: active = GI50 up to about 1.1 µM and inactive = higher. A value given as a limit tells only on which side of the number the result lay.

Test systems include COLO 205; NCI-H522; UO-31; RXF 393; CAKI-1; Malme-3M; CCRF-CEM; SK-MEL-5; OVCAR-3; U-251; A498; NCI-H226; HCC 2998; K562; HCT-15; HCT-116; RPMI-8226.
Assay in all cases: inhibition of tumour cell growth, NCI panel, 48 h

As to `CCOC(=O)CC1=N/C(=N/C(=N)N[N+](=O)[O-])SC1`, the GI50 in the test with COLO 205, in the test on NCI-H522, in the test with UO-31, with RXF 393, in the test on CAKI-1 and in the test with Malme-3M was > 100 µM (inactive) throughout. Moreover, the GI50 in the test on CCRF-CEM, in the test with SK-MEL-5, in the test with OVCAR-3, in the test with U-251, in the test on A498 and in the test with NCI-H226 was > 100 µM (inactive) each time. Also, the GI50 in the test on HCC 2998 was > 100 µM (inactive); with K562, > 100 µM (inactive); with HCT-15, more than 100 µM; with HCT-116 it was > 100 µM (inactive).

On to `N#CCCCCCOCCOCCOCCOCCOCCCCCC#N`, for which the GI50 in the test on COLO 205, with NCI-H522, in the test on UO-31, with RXF 393, in the test with CAKI-1 and in the test with Malme-3M was > 100 µM (inactive) in each case. Further, the GI50 in the test with CCRF-CEM was > 100 µM (inactive); in the test with SK-MEL-5, > 100 µM (inactive); in the test on OVCAR-3 it was 97.7 µM (inactive); in the test on U-251, > 100 µM (inactive); with A498, > 100 µM (inactive); with NCI-H226, > 100 µM (inactive). Further, the GI50 with HCC 2998 was > 100 µM (inactive); in the test on K562, 68.5 µM (inactive); with HCT-15, more than 100 µM; in the test on HCT-116, > 100 µM (inactive).

`CCOC(=O)C1(C(=O)OCC)OC(=O)NC2=C1CCCC2`: the GI50 with COLO 205, in the test on NCI-H522, in the test on UO-31, with RXF 393, in the test on Malme-3M and in the test on CCRF-CEM was > 100 µM (inactive) in each case. For the same molecule, the GI50 with SK-MEL-5, with OVCAR-3, in the test with U-251, with A498, with RPMI-8226 and in the test with HCC 2998 was > 100 µM (inactive) in each case. Besides, the GI50 in the test with K562 and with HCT-116 was > 100 µM (inactive) each time.

On to `OC1/C(=C/c2ccccc2)CNC/C1=C\c1ccccc1` (stereo unspecified), for which the GI50 was > 100 µM (inactive) with COLO 205; > 100 µM (inactive) in the test with NCI-H522; 87.5 µM (inactive) in the test with UO-31; > 100 µM (inactive) in the test with RXF 393; 43.1 µM (inactive) with CAKI-1; > 100 µM (inactive) in the test with Malme-3M. The GI50 is 40.8 µM (inactive) in the test on CCRF-CEM; > 100 µM (inactive) with SK-MEL-5; > 100 µM (inactive) in the test with OVCAR-3; > 100 µM (inactive) in the test with U-251; > 100 µM (inactive) in the test on A498; > 100 µM (inactive) with RPMI-8226. The GI50 was > 100 µM (inactive) in the test on HCC 2998, more than 100 µM in the test on HCT-15 and > 100 µM (inactive) with HCT-116.

On to `O=C(Sc1sc(=S)sc1SC(=O)c1ccccc1)c1ccccc1`, for which the GI50 with COLO 205 was > 100 µM (inactive); with NCI-H522 it was > 100 µM (inactive); with RXF 393 it was > 100 µM (inactive); in the test with CAKI-1 it was > 100 µM (inactive); with Malme-3M, 78.3 µM (inactive); with CCRF-CEM, > 100 µM (inactive). Moreover, the GI50 was > 100 µM (inactive) in the test on SK-MEL-5; > 100 µM (inactive) in the test with OVCAR-3; 28.8 µM (inactive) in the test on U-251; 31.5 µM (inactive) in the test with A498; > 100 µM (inactive) in the test on RPMI-8226; 34.2 µM (inactive) in the test with HCC 2998. Also, the GI50 in the test on K562 was > 100 µM (inactive); in the test with HCT-15, more than 100 µM; in the test on HCT-116, 71.1 µM (inactive).
